Our source for the IC50 values is ChEMBL document CHEMBL4308889, “Resorcinol alkyl glucosides as potent tyrosinase inhibitors” (Bioorg Med Chem Lett, 2019).

For orientation: IC50 means the concentration needed to halve the response being measured.

In one assay the target is T1, Tyrosinase (Agaricus bisporus, UniProt O42713).
T1 sequence (O42713 whole entry): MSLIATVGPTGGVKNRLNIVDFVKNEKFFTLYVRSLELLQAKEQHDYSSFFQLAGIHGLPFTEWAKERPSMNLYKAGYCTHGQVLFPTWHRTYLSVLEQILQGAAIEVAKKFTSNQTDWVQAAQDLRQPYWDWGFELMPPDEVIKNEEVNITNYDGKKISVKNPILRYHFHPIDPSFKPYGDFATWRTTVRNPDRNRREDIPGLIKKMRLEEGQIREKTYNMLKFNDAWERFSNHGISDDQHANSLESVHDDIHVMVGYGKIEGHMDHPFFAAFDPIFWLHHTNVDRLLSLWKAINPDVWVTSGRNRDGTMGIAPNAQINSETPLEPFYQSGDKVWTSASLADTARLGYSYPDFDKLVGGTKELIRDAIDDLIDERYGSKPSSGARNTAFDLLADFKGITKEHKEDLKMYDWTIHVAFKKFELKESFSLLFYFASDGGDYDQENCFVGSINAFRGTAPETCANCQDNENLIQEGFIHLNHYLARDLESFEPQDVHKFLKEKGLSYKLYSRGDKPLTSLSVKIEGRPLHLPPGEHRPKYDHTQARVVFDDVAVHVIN
Nature of the assay: Inhibition of mushroom tyrosinase using TBC as substrate by spectrophotometric method.
`OC[C@H]1O[C@@H](OCCCCCCCCCCCCCCc2ccc(O)cc2O)[C@H](O)[C@@H](O)[C@@H]1O`: the IC50 came to 390 nM. That is a sub-micromolar value.

In turn, `OC[C@H]1O[C@@H](OCCc2ccc(O)cc2O)[C@H](O)[C@@H](O)[C@@H]1O` displayed an IC50 of 35900 nM.

With `OC[C@H]1O[C@@H](OCCCCCCc2ccc(O)cc2O)[C@H](O)[C@@H](O)[C@@H]1O`, the IC50 turned out to be 630 nM.

The molecule `OC[C@H]1O[C@@H](OCCCCCCCCCCc2ccc(O)cc2O)[C@H](O)[C@@H](O)[C@@H]1O` returned an IC50 of 410 nM.

In turn, `OC[C@H]1O[C@@H](OCCCCc2ccc(O)cc2O)[C@H](O)[C@@H](O)[C@@H]1O` yielded an IC50 of 1360 nM.

As for `OC[C@H]1O[C@@H](OCCCc2ccc(O)cc2O)[C@H](O)[C@@H](O)[C@@H]1O`, inhibition was half-maximal at 3620 nM (IC50). This IC50 lies about 2.7-fold higher than the previous one.

Consider `CCCCCCc1ccc(O)cc1O` [HEXYLRESORCINOL], for which the IC50 amounted to 610 nM.

For another assay, the target named is T2, Tyrosinase (Homo sapiens, UniProt P14679).
T2 sequence (P14679 whole entry): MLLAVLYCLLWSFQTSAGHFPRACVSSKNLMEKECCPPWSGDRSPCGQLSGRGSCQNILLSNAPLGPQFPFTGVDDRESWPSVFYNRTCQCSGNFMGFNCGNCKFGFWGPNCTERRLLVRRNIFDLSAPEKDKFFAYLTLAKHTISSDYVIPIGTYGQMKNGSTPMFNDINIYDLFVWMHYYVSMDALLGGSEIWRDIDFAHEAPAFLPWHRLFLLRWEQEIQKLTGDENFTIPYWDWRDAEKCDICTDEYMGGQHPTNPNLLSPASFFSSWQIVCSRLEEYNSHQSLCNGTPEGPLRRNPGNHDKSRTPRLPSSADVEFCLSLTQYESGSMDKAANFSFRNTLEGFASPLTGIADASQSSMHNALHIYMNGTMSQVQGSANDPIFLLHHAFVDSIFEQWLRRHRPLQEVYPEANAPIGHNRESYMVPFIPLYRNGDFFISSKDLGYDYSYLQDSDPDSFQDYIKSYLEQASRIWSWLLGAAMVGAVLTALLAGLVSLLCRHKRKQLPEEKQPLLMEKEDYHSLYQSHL
Nature of the assay: Inhibition of tyrosinase (unknown origin) using L-DOPA as substrate preincubated with substrate for 5 mins followed by enzyme addition and measured immediately by spectrophotometric method.
As to `OC[C@H]1O[C@@H](Oc2ccc(O)cc2O)[C@H](O)[C@@H](O)[C@@H]1O`, inhibition was half-maximal at 417000 nM (IC50).
